Assay results taken from patent US9296716B2, “Androgen receptor ligands” (THE PROVOST, FELLOWS, FOUNDATION SCHOLARS, & THE OTHER …, priority 2011, dated 2016).

Assays:
[1] = molecular target: T1, Progesterone Receptor (PR) LBD (Homo sapiens, UniProt P06401); assay: TR-FRET SRC1-4 coactivator recruitment assay, PR LBD; type: biochemical; conditions: Progesterone = EC80
T1 construct: purchased Invitrogen PV4666
T1 sequence (P06401 679-913 limits assumed): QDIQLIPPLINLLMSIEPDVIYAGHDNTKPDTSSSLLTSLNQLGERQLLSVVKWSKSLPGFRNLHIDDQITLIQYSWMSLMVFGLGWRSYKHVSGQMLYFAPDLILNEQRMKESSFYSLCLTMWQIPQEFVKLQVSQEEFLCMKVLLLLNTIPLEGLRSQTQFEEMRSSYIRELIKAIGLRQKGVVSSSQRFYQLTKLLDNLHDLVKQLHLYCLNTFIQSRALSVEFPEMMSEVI
Protocol: (§1) Compound binding affinities for Progesterone Receptor (PR), Glucocorticoid Receptor (GR), Estrogen Receptor alpha and Estrogen Receptor beta were determined using TR-FRET (Table 2).
(§2) Lanthascreen TR-FRET AR Coactivator Assay kit (Invitrogen, cat no. PV4381) was used to screen for potential coactivator disruptors.
(§3) TR FRET values were calculated at 10 flashes per well, using a delay time of 100 μs and integration time 200 μs as recommended by the Invitrogen assay guidelines. […] A serial dilution of compounds was firstly prepared in 100×DMSO (Sigma-Aldrich) starting from the maximum desired concentration to achieve a 12 point range concentration using 96-well polypropylene plates (Nalgene Nunc, Rochester, N.Y.). Each 100× solution was diluted to 2× concentration with TR-FRET co-regulator buffer A (Invitrogen proprietary buffer), yielding a final concentration of 1% DMSO in each well.
(§4) D11-FxxLF and Tb antibody were premixed in light protecting vials prior to use. A final concentration of DTT 5 mM was used in the assay buffer in order to prevent protein degradation. All plates (agonist and antagonist mode) were incubated between 2 and 4 hours at room temperature protected from light prior to TR-FRET measurement. […] Data was fitted using the sigmoidal dose response (variable slope) available from Graphpad Prism 5. Y=Bottom+(Top-Bottom)/(1+10^((Log IC50−X)*HillSlope))
(§5) The same procedure was used for AR T877A (Invitrogen cat no. PV4667), PR (Invitrogen cat no. PV4666), ER-α (Invitrogen cat no. PV4544), ER-β (Invitrogen cat no. PV4541) and GR (Invitrogen cat no. PV4683). The assay was adapted to exclude possible non-specific aggregation mechanism of inhibition by adding very low concentration of detergent Triton X-100 (0.001%) to the assay buffer following the Shoichet review guidelines [Shoichet BK (2006) Screening in a spirit haunted world. Drug Discov Today 11:607-615].

AR-LBD T877A mutant = molecular target: T2, AR-LBD T877A mutant (Homo sapiens, UniProt P10275, T878A); assay: TR-FRET coactivator assay, AR T877A mutant; type: biochemical; conditions: D11-FxxLF peptide, DHT = EC80
T2 construct: purchased Invitrogen PV4667
T2 sequence (P10275 669-900 T878A): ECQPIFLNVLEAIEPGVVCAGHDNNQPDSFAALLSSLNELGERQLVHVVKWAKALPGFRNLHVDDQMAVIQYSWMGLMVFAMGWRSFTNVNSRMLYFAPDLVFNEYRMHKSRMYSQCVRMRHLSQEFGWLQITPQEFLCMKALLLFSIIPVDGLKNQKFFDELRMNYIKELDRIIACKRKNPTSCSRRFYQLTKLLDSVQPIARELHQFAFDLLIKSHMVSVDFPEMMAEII

[2] = test system: PSA expression in 22Rv1 cells; assay: PSA ELISA, secreted PSA in 22Rv1 cells; type: cell-based
Protocol: (§6) To investigate compounds effect on PSA expression, a common biomarker for prostate cancer, we utilized a human PSA ELISA assay.
(§7) We repeated the same experiment in 22Rv1 cell line.
(§8) Secreted levels of prostate specific antigen were evaluated with a commercially available kit (Quantikine Human Kallikrein 3/PSA Immunoassay, R&D systems). The assay was performed following manufacturer's guidelines. In brief, 50 μl of standards and cell culture samples were added to pre-coated wells containing assay diluent RD1W (R&D systems) and incubated for two hours at room temperature. Unbound material was washed several times and 200 μl of Horseradish Peroxidase (HRP) labeled PSA conjugate antibody was added to each well and further incubated for two hours at room temperature. Wells were washed and treated with colored substrate (Tetramethylbenzidine) for an additional 30 minutes, after which 50 μl of stop solution (Sulphuric Acid 2N) was added per well and absorbance (450 nm with correction at 540 nm) was read with a plate reader within 30 minutes (Versamax).

22Rv1 cells = assay: 22Rv1 cell proliferation assay; type: cell-based
Protocol: Thus, inhibition on cell proliferation by the compounds could not be evaluated (FIG. 14)
as §7
For cell viability (end point) assays LNCaP, PC-3 and PWR-1E cells were seeded at 2.5*10^4/ml density in 200 μl volume of a 96-well plate in triplicate and incubated for 24 hours prior testing. Test compounds were included at different concentrations to achieve a final concentration of 0.5% DMSO in each well. Effect of 0.5% DMSO on cell-viability was also evaluated. Cell viability was assessed after 24 hours of treatment using 10% Alamar Blue reagent (Invitrogen) for each well. Cell viability was monitored by the reduction of resazurin, a blue, cell-permeable and non-toxic compound, to resorufin, a red and highly fluorescent product. Viable cells continuously convert resazurin to resorufin, increasing the overall colour and fluorescence of the media surrounding cells. Fluorescence intensity can be quantitatively determined with a fluorescence microplate reader at excitation/emission 544 nm/590 nm (Spectramax Gemini). […] A control for the vehicle was included to ensure no effect on viability could be detected. […] Supernatants were collected after five days for secreted PSA levels evaluation and cell proliferation was assessed for the same plate using Alamar Blue in order to exclude non-specific effects due to toxicity issues.

[3] = molecular target: Estrogen Receptor beta (ER-β) LBD (Homo sapiens, UniProt Q92731); assay: TR-FRET PGC1-α coactivator recruitment assay, ERβ LBD; type: biochemical; conditions: Estradiol = EC80
Chain of Estrogen Receptor beta (ER-β) LBD (Q92731 264-498 limits assumed): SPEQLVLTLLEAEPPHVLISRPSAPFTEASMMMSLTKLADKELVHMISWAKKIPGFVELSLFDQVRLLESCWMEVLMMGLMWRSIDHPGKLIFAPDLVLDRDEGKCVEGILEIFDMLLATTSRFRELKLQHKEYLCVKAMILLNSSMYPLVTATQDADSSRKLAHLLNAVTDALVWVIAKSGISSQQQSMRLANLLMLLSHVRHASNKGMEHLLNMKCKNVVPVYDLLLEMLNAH
Protocol: as §1
Selectivity of the diarylhydrazide scaffold for the AR was determined through a TR-FRET assay in ERα (FIGS. 8A & 9A1) and ERR (FIGS. 8B & 9A2). […] The non-LBP nature of this inhibition was confirmed by a FP assay (FIGS. 9C, 9B1 & 9B2).
as §2, §3, §4, §5

[4] = test system: PSA expression in LNCaP cells; assay: PSA ELISA, secreted PSA in LNCaP cells; type: cell-based
Protocol: as §6
For cell viability (end point) assays LNCaP, PC-3 and PWR-1E cells were seeded at 2.5*10^4/ml density in 200 μl volume of a 96-well plate in triplicate and incubated for 24 hours prior testing. Test compounds were included at different concentrations to achieve a final concentration of 0.5% DMSO in each well. Effect of 0.5% DMSO on cell-viability was also evaluated. Cell viability was assessed after 24 hours of treatment using 10% Alamar Blue reagent (Invitrogen) for each well. Cell viability was monitored by the reduction of resazurin, a blue, cell-permeable and non-toxic compound, to resorufin, a red and highly fluorescent product. Viable cells continuously convert resazurin to resorufin, increasing the overall colour and fluorescence of the media surrounding cells. Fluorescence intensity can be quantitatively determined with a fluorescence microplate reader at excitation/emission 544 nm/590 nm (Spectramax Gemini). For hormone dependent cell proliferation assays in androgen deprived LNCaP cells, cells were seeded at 2*10^4 cells/ml in a 24-well plate in triplicate. Cells were plated in phenol red free RPMI Glutamax (Invitrogen) supplemented with 10% charcoal-stripped FBS to deplete endogenous steroids 48 hours prior the assay as described in previous reports. […] Cells were treated with different concentrations of test compounds with or without 0.1 nM DHT to achieve a final concentration of 0.1% DMSO in each well. A control for the vehicle was included to ensure no effect on viability could be detected. Media and treatments were replaced every second day, after washing the cells twice with 1×PBS. Supernatants were collected after five days for secreted PSA levels evaluation and cell proliferation was assessed for the same plate using Alamar Blue in order to exclude non-specific effects due to toxicity issues.
as §8, with “Unbound material was washed several times and 200 μl of Horseradish Peroxidase (HRP) labeled PSA conjugate antibody was added to each well and further incubated for two hours at room temperature.” left out

COc1cc(/C=N/NC(=O)c2cc3c(ccc4ccccc43)o2)cc(OC)c1O [MDG506]
effect on PR recruitment of fluorescent labelled SRC1-4 ([1]; 100 μM to 45 nM): partially inhibit
IC50 ([1]; TR-FRET, ± SEM (n = 6), read-out: NR LBDs IC50 (μM) PR): 27.7 ± 7.3 µM
IC50 (AR-LBD T877A mutant): 33.2 ± 5.9 µM
DHT stimulated PSA expression ([2]; 22Rv1): no effect could be seen
PSA expression in absence of androgens ([2]; 22Rv1): does not induce
CPA stimulated PSA expression ([2]; 22Rv1, MDG506 at different concentrations): reduced
cell proliferation in absence of androgens (22Rv1 cells): does not induce
effect on ERβ recruitment of fluorescent labelled PGC1-α ([3]; 100 μM to 45 nM): partially inhibit
IC50 ([3]; TR-FRET, ± SEM (n = 6), read-out: NR LBDs IC50 (μM) ER-β): > 100 µM
PSA expression in absence of androgens [4]: does not induce
CPA stimulated PSA secretion / expression ([4]; MDG506 at 10 or 20 μM): significantly (P<0.001) reduces
DHT stimulated PSA expression ([4]; concentrations up to 20 μM): dose dependent inhibition
